In PubChem BioAssay (NCI):
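Briefly, cells in 96-well plates were exposed to five compound concentrations for 48 h, and endpoints were estimated by linear interpolation. At the TGI there is no net growth.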

How the values were obtained:
Test in all cases: DTP human tumour cell line panel, 48 h
UO-31 renal = system: UO-31 renal
EKVX NSCLC = system: EKVX NSCLC
HOP-92 NSCLC = system: HOP-92 NSCLC
MALME-3M melanoma = system: MALME-3M melanoma
HCT-116 colon = system: HCT-116 colon
MDA-N = system: MDA-N
SK-MEL-28 melanoma = system: SK-MEL-28 melanoma
LOX IMVI melanoma = system: LOX IMVI melanoma
T-47D breast = system: T-47D breast
SNB-75 CNS = system: SNB-75 CNS
SR leukemia = system: SR leukemia

CC1=[N+]([O-])C2(CCCC2)N(O)C1(C)C
TGI (UO-31 renal): > 100 µM | TGI (EKVX NSCLC): > 100 µM | TGI (HOP-92 NSCLC): > 100 µM | TGI (MALME-3M melanoma): > 100 µM | TGI (HCT-116 colon): > 100 µM | TGI (MDA-N): > 100 µM | TGI (SK-MEL-28 melanoma): > 100 µM | TGI (LOX IMVI melanoma): > 100 µM | TGI (T-47D breast): > 100 µM

CN1C2CCC1C(CO)C(=O)C2 (stereo not drawn)
TGI (SNB-75 CNS): > 100 µM | TGI (SR leukemia): 75.7 µM | TGI (HOP-92 NSCLC): > 100 µM | TGI (MALME-3M melanoma): 66.5 µM | TGI (SK-MEL-28 melanoma): > 100 µM | TGI (LOX IMVI melanoma): > 100 µM | TGI (T-47D breast): 48.1 µM

CCc1nc2c([nH]1)C(=O)c1ccccc1C2=O
TGI (SNB-75 CNS): > 100 µM | TGI (UO-31 renal): > 100 µM | TGI (SR leukemia): > 100 µM | TGI (EKVX NSCLC): > 100 µM | TGI (MALME-3M melanoma): 49.5 µM | TGI (HCT-116 colon): 80.6 µM | TGI (SK-MEL-28 melanoma): > 100 µM

C[C@@](Br)(C(=O)O)[C@H](Br)C(=O)O
TGI (SNB-75 CNS): > 100 µM | TGI (UO-31 renal): > 100 µM | TGI (EKVX NSCLC): > 100 µM | TGI (HOP-92 NSCLC): > 100 µM | TGI (MALME-3M melanoma): > 100 µM | TGI (HCT-116 colon): > 100 µM | TGI (MDA-N): > 100 µM | TGI (SK-MEL-28 melanoma): > 100 µM | TGI (LOX IMVI melanoma): > 100 µM | TGI (T-47D breast): > 100 µM

Cc1cccc2c(N)c3cccc(C(=O)NCC[N+](C)(C)[O-])c3nc12
TGI (SNB-75 CNS): 9.47 µM | TGI (UO-31 renal): > 100 µM | TGI (EKVX NSCLC): 87.4 µM | TGI (HOP-92 NSCLC): 92.8 µM | TGI (MALME-3M melanoma): 52.5 µM | TGI (HCT-116 colon): > 100 µM | TGI (MDA-N): 42.7 µM | TGI (SK-MEL-28 melanoma): 45.2 µM | TGI (LOX IMVI melanoma): > 100 µM | TGI (T-47D breast): > 100 µM

Cn1c(=O)c2[nH]c(Nc3cccc(Cl)c3)nc2n(C)c1=O
TGI (SNB-75 CNS): > 10 µM | TGI (EKVX NSCLC): > 10 µM | TGI (HOP-92 NSCLC): 6.56 µM | TGI (MALME-3M melanoma): > 10 µM | TGI (MDA-N): > 10 µM | TGI (SK-MEL-28 melanoma): > 10 µM | TGI (LOX IMVI melanoma): > 10 µM | TGI (T-47D breast): 8.72 µM

CC(C)(C)[Si](C)(C)OC1CCOC1(O)c1ccccn1 (stereo not drawn)
TGI (SNB-75 CNS): > 100 µM | TGI (UO-31 renal): > 100 µM | TGI (EKVX NSCLC): > 100 µM | TGI (HOP-92 NSCLC): > 100 µM | TGI (MALME-3M melanoma): > 100 µM | TGI (HCT-116 colon): > 100 µM | TGI (MDA-N): > 100 µM | TGI (SK-MEL-28 melanoma): > 100 µM | TGI (LOX IMVI melanoma): > 100 µM | TGI (T-47D breast): > 100 µM

CCC1(c2ccc(OC)c(OC)c2)CCN2C(=O)C(O)CC21 (stereo not drawn)
TGI (SNB-75 CNS): > 100 µM | TGI (UO-31 renal): > 100 µM | TGI (SR leukemia): > 100 µM | TGI (EKVX NSCLC): > 100 µM | TGI (HCT-116 colon): > 100 µM | TGI (MDA-N): > 100 µM | TGI (SK-MEL-28 melanoma): > 100 µM | TGI (LOX IMVI melanoma): > 100 µM | TGI (T-47D breast): > 100 µM

CCOC(=O)C(NC(=O)CC)(Nc1ccccc1F)C(F)(F)F (stereo not drawn)
TGI (SNB-75 CNS): > 100 µM | TGI (UO-31 renal): > 100 µM | TGI (SR leukemia): > 100 µM | TGI (EKVX NSCLC): > 100 µM | TGI (HOP-92 NSCLC): > 100 µM | TGI (HCT-116 colon): > 100 µM | TGI (MDA-N): > 100 µM | TGI (SK-MEL-28 melanoma): > 100 µM | TGI (LOX IMVI melanoma): > 100 µM | TGI (T-47D breast): > 100 µM

C=C1C[C@@H]2CC[C@@]34CC5O[C@H]6C(O[C@H]7CC[C@H](CC(=O)O[C@@H]8[C@@H](C)[C@@H]9O[C@@H]%10C[C@]%11(C[C@@H]%12O[C@]%13(C[C@H](C)[C@@H]%14O[C@@H]%15CC(C(COC(C)=O)OC(C)=O)O[C@@H]%15C[C@@H]%14O%13)C[C@H](C)[C@@H]%12O%11)O[C@@H]%10C[C@@H]9O[C@H]8CC8O[C@@H](CC[C@@H]1O2)C[C@@H](C)C8(O)CO)O[C@@H]7[C@@H]6O3)[C@H]5O4 (stereo partly drawn)
TGI (SNB-75 CNS): > 1 µM | TGI (UO-31 renal): > 1 µM | TGI (SR leukemia): > 1 µM | TGI (EKVX NSCLC): > 1 µM | TGI (HOP-92 NSCLC): > 1 µM | TGI (HCT-116 colon): > 1 µM | TGI (SK-MEL-28 melanoma): > 1 µM | TGI (LOX IMVI melanoma): > 1 µM | TGI (T-47D breast): > 0.924 µM

C/C(=C\CO)CC[C@@H]1[C@@]2(C)CCCC(C)(C)[C@@H]2CC[C@@]1(C)O
TGI (SNB-75 CNS): 34.7 µM | TGI (UO-31 renal): 50.3 µM | TGI (EKVX NSCLC): 51.5 µM | TGI (HOP-92 NSCLC): 32.4 µM | TGI (MALME-3M melanoma): 36.3 µM | TGI (HCT-116 colon): 43.5 µM | TGI (MDA-N): 38 µM | TGI (SK-MEL-28 melanoma): 43.2 µM | TGI (LOX IMVI melanoma): 30.2 µM | TGI (T-47D breast): 51.3 µM

CN(C)C(=O)/N=C1\SC(=Nc2ccccc2)C(=Nc2ccccc2)N1c1ccc([N+](=O)[O-])cc1
TGI (SNB-75 CNS): > 100 µM | TGI (UO-31 renal): > 100 µM | TGI (SR leukemia): > 100 µM | TGI (MALME-3M melanoma): > 100 µM | TGI (HCT-116 colon): > 100 µM | TGI (MDA-N): > 100 µM | TGI (SK-MEL-28 melanoma): > 100 µM | TGI (T-47D breast): > 100 µM

O=c1cccc2n1CC1CNCC2C1 (stereo not drawn)
TGI (SNB-75 CNS): > 100 µM | TGI (UO-31 renal): > 100 µM | TGI (EKVX NSCLC): > 100 µM | TGI (HOP-92 NSCLC): > 100 µM | TGI (MALME-3M melanoma): > 100 µM | TGI (HCT-116 colon): > 100 µM | TGI (MDA-N): > 100 µM | TGI (SK-MEL-28 melanoma): > 100 µM | TGI (LOX IMVI melanoma): > 100 µM

CCC(C)C(NC(=O)C(CCCC[N+](=N)N)NC(=O)C(CCCC[N+](=N)N)NC(=O)c1ccc(OC)cc1)C(=O)NC(CCCC[N+](=N)N)C(=O)N1CCCC1C(=O)NC(CCCCN)C(=O)NC(CC(C)C)C(N)=O (stereo not drawn)
TGI (SNB-75 CNS): > 100 µM | TGI (UO-31 renal): > 100 µM | TGI (SR leukemia): > 100 µM | TGI (EKVX NSCLC): > 100 µM | TGI (MALME-3M melanoma): > 100 µM | TGI (HCT-116 colon): > 100 µM | TGI (MDA-N): > 100 µM | TGI (SK-MEL-28 melanoma): > 100 µM | TGI (LOX IMVI melanoma): > 100 µM | TGI (T-47D breast): > 100 µM

CN(C)CN1C(=O)/C(=N\n2c(-c3ccncc3)n[nH]c2=S)c2ccccc21
TGI (SNB-75 CNS): > 100 µM | TGI (UO-31 renal): 57 µM | TGI (EKVX NSCLC): > 100 µM | TGI (HOP-92 NSCLC): > 100 µM | TGI (MALME-3M melanoma): > 100 µM | TGI (HCT-116 colon): > 100 µM | TGI (MDA-N): 31.8 µM | TGI (SK-MEL-28 melanoma): > 100 µM | TGI (LOX IMVI melanoma): 62.2 µM | TGI (T-47D breast): > 100 µM

COC(=O)[C@@H]1[C@H]2CC[C@]3(C)[C@@H](OC(C)=O)CC[C@H]3[C@@H]2CC[C@H]1C1(C)SCCS1
TGI (SNB-75 CNS): > 100 µM | TGI (UO-31 renal): > 100 µM | TGI (EKVX NSCLC): 74.4 µM | TGI (HOP-92 NSCLC): 47.9 µM | TGI (MALME-3M melanoma): 38.9 µM | TGI (HCT-116 colon): 46.3 µM | TGI (MDA-N): 47.3 µM | TGI (SK-MEL-28 melanoma): > 100 µM | TGI (LOX IMVI melanoma): 34.6 µM | TGI (T-47D breast): 56.8 µM

Clc1sc(Cl)c2c1[C@H](Br)C[C@@H]2Cl
TGI (SNB-75 CNS): > 100 µM | TGI (UO-31 renal): 43.8 µM | TGI (SR leukemia): 39.5 µM | TGI (EKVX NSCLC): > 100 µM | TGI (MALME-3M melanoma): 49.4 µM | TGI (HCT-116 colon): 65.9 µM | TGI (MDA-N): > 100 µM | TGI (SK-MEL-28 melanoma): 71 µM | TGI (LOX IMVI melanoma): 49.5 µM | TGI (T-47D breast): > 100 µM

C[C@@H](CCO)OC1OC(COC(=O)C(C)(C)C)C(OC(=O)C(C)(C)C)C(OC(=O)C(C)(C)C)C1OC(=O)C(C)(C)C (stereo partly drawn)
TGI (SNB-75 CNS): > 100 µM | TGI (SR leukemia): > 100 µM | TGI (EKVX NSCLC): > 100 µM | TGI (HOP-92 NSCLC): > 100 µM | TGI (HCT-116 colon): > 100 µM | TGI (SK-MEL-28 melanoma): > 100 µM | TGI (LOX IMVI melanoma): > 100 µM | TGI (T-47D breast): > 100 µM

O=c1n(CCCN2CCOCC2)nc2n1-c1ccc3ccccc3c1SC2
TGI (SNB-75 CNS): > 100 µM | TGI (UO-31 renal): 45.7 µM | TGI (SR leukemia): > 100 µM | TGI (EKVX NSCLC): > 100 µM | TGI (HOP-92 NSCLC): > 100 µM | TGI (HCT-116 colon): > 100 µM | TGI (MDA-N): 24.1 µM | TGI (SK-MEL-28 melanoma): > 100 µM | TGI (LOX IMVI melanoma): 53 µM | TGI (T-47D breast): > 100 µM

OCCN(CCO)c1ncnc2c1sc(=S)n2-c1ccccc1
TGI (SNB-75 CNS): > 100 µM | TGI (UO-31 renal): > 100 µM | TGI (SR leukemia): > 100 µM | TGI (EKVX NSCLC): > 100 µM | TGI (HOP-92 NSCLC): > 100 µM | TGI (MALME-3M melanoma): > 100 µM | TGI (HCT-116 colon): > 100 µM | TGI (SK-MEL-28 melanoma): > 100 µM | TGI (LOX IMVI melanoma): > 100 µM

CC(=O)N=S(NC(=O)c1ccc(C)cc1)C(Cl)(Cl)Cl (stereo not drawn)
TGI (SNB-75 CNS): > 100 µM | TGI (UO-31 renal): 56 µM | TGI (EKVX NSCLC): > 100 µM | TGI (HOP-92 NSCLC): > 100 µM | TGI (MALME-3M melanoma): 96 µM | TGI (HCT-116 colon): > 100 µM | TGI (MDA-N): > 100 µM | TGI (SK-MEL-28 melanoma): > 100 µM | TGI (LOX IMVI melanoma): 80.1 µM | TGI (T-47D breast): > 100 µM
